Columns and labels:
[1] = molecular target: T1, ADAMTS-4 (Agg-1) (Homo sapiens, UniProt O75173); assay: Inhibition of aggrecanase activity of ADAMTS-4 (Agg-1), continuous fluorescent quenched-peptide assay; type: biochemical; conditions: concentration that inhibits 50% of the aggrecanase activity of ADAMTS-4 (Agg-1);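 further: purified enzyme preincubated 10 min with inhibitor at room temperature, then initial substrate cleavage rate (RFU/min) read by fluorescence plate reader versus the uninhibited rate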
T1 sequence (O75173 213-837): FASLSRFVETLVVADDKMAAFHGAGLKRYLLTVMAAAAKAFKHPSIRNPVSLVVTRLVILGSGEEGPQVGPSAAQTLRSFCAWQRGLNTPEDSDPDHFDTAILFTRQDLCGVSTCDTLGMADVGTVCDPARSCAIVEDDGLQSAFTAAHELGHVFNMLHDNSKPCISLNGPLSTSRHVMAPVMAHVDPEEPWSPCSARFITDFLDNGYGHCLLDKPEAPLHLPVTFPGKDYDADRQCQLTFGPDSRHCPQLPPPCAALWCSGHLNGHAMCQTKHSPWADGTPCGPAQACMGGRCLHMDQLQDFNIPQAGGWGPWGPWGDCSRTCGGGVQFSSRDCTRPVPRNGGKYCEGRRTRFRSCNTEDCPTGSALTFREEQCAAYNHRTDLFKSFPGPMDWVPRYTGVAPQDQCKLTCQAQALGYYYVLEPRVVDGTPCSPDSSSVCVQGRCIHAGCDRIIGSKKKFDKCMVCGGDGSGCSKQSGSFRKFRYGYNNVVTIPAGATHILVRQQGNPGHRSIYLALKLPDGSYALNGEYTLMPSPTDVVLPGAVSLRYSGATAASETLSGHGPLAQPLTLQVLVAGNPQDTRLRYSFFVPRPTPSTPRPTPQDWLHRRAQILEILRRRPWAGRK
Method: A continuous assay was used in which the substrate upon which Agg-1 and Agg-1 acts is a synthetic peptide containing a fluorescent group that is quenched by energy transfer. […] The initial rates of the reaction are compared to the initial rates of reactions containing the biaryl sulfonamide compounds in order to assess the inhibitor potency of the compounds.
The assay buffer (pH 7.4) consisted of 50 mM Hepes, 100 mM NaCl, 5 mM CaCl2, 0.1% CHAPS, 5% glycerol. Each well of black polystyrene 96-well or 384-well plates contained a reaction consisting of assay buffer, purified Agg-2 (diluted with assay buffer), and varied concentrations of inhibitor (prepared by serial dilution in DMSO in 96-well polypropylene plates). The plates were then incubated at room temperature for 10 minutes. […] The initial rates of the cleavage reactions were determined at room temperature with a fluorescence plate reader immediately after substrate addition.

[2] = molecular target: T2, ADAMTS-5 (Agg-2), purified recombinant human Aggrecanase-2 (Ag2t-Phe628-Strep) (Homo sapiens, UniProt Q9UNA0); assay: Inhibition of aggrecanase activity of ADAMTS-5 (Agg-2), continuous fluorescent quenched-peptide assay (WAKB-5 substrate); type: biochemical; conditions: concentration that inhibits 50% of the aggrecanase activity of ADAMTS-5 (Agg-2); substrate 25 μM, pH 7.4, room temperature
T2 construct: the form used is denoted as Ag2t-Phe628-Strep (MW=41,737)
T2 sequence (Q9UNA0 262-628): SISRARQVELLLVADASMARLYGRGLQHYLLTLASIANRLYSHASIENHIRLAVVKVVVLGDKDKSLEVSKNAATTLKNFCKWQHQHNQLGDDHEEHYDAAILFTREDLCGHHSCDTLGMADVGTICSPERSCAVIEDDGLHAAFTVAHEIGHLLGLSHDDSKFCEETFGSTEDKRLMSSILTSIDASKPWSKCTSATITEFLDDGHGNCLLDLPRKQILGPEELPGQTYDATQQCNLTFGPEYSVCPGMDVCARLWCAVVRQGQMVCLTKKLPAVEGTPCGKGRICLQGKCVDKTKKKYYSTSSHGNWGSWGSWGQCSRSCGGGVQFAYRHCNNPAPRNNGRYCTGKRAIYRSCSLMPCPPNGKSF
Method: The biaryl sulfonamide compounds of the present invention were tested for their ability to inhibit the aggrecanase activity of ADAMTS-4 (Agg-1) and ADAMTS-5 (Agg-2).
A continuous assay was used in which the substrate upon which Agg-1 and […] acts is a synthetic peptide containing a fluorescent group that is quenched by energy transfer. Cleavage of the peptide by the aggrecanase enzyme results in a large increase in fluorescence. The initial rates of the reaction are compared to the initial rates of reactions containing the biaryl sulfonamide compounds in order to assess the inhibitor potency of the compounds.
The source of enzyme in the assay is purified recombinant human Aggrecanase-2. More specifically, the form used is denoted as Ag2t-Phe628-Strep (MW=41,737). This form is truncated relative to the full-length enzyme and contains an affinity tag. Aliquots of this enzyme were stored at −80° C. in 25 mM Tris (pH 8.0), 100 mM NaCl, 5 mM CaCl2, 10 μM ZnCl2, 10% glycerol.
The substrate in the assay is a synthetic peptide that is designed after a portion of brevican, one of the naturally occurring substrates of Aggrecanase-2. […] WAKB-5 (mass=1740) was custom synthesized by AnaSpec, Inc. (San Jose, Calif.) and was >95% pure based on HPLC analysis. […] Stock solutions of the substrate were prepared with MilliQ water and aliquots were stored at −80° C. The concentration of this substrate stock was spectrophotometrically determined using the extinction coefficient at 354 nm of 18,172 M^−1 cm^−1.
The assay buffer (pH 7.4) consisted of 50 mM Hepes, 100 mM NaCl, 5 mM CaCl2, 0.1% CHAPS, 5% glycerol. Each well of black polystyrene 96-well or 384-well plates contained a reaction consisting of assay buffer, purified Agg-2 (diluted with assay buffer), and varied concentrations of inhibitor (prepared by serial dilution in DMSO in 96-well polypropylene plates). The plates were then incubated at room temperature for 10 minutes. The enzymatic reactions were initiated by adding substrate to a final concentration of 25 μM and were mixed by pipetting up and down. The initial rates of the cleavage reactions were determined at room temperature with a fluorescence plate reader immediately after substrate addition.
Analysis of the results was conducted by generating a plot of time vs. RFU for each sample. This was used as the “progress curve” of the reaction. The slope for the portion of the progress curve that is most linear was then determined. This slope (RFU/min) was used as the initial rate of the reaction. Plots of the inhibitor concentration vs. the initial cleavage rate were then fit to the following equation: y=Vmax*(1−(x^n/(K^n+x^n))), whereby x=inhibitor concentration, y=initial rate, Vmax=initial rate in the absence of inhibitor, n=slope factor, and K=IC50 for the inhibition curve.

Compound	IC50 [1] [µM]	IC50 [2] [µM]
CC(=O)c1ccc(OCc2ccc(-c3ccc(S(=O)(=O)N[C@@H](C(=O)O)C(C)C)cc3)cc2)cc1	0.4	7
COc1ccc(OCc2ccc(-c3ccc(S(=O)(=O)N[C@@H](C(=O)O)C(C)C)cc3)cc2)cc1	1.6	10.7
CC(C)[C@@H](NS(=O)(=O)c1ccc(-c2ccc(COc3cccc(F)c3)cc2)cc1)C(=O)O		8.2
CC(C)[C@@H](NS(=O)(=O)c1ccc(-c2ccc(OCc3ccc4c(c3)OCCO4)cc2)cc1)C(=O)O	1.4	3
Cc1cccc(Oc2ccc(OCc3ccc(-c4ccc(S(=O)(=O)N[C@@H](C(=O)O)C(C)C)cc4)cc3)cc2)n1	0.7	4
CC(C)[C@@H](NS(=O)(=O)c1ccc(-c2ccc(COc3cccc4[nH]ccc34)cc2)cc1)C(=O)O	1.9	12
Cc1cccc(Oc2ccc(OCc3ccc(-c4ccc(S(=O)(=O)N[C@@H](C(=O)O)C(C)C)c(Cl)c4)cc3)cc2)n1	0.9	3.2
CC(C)[C@@H](NS(=O)(=O)c1ccc(-c2ccc(COc3ccc(C(=O)c4ccc(F)cc4)cc3)cc2)cc1)C(=O)O [drawing 171]	0.1	2.5
COc1ccc(C(=O)c2ccc(OCc3ccc(-c4ccc(S(=O)(=O)N[C@@H](C(=O)O)C(C)C)cc4)cc3)cc2)cc1	0.3	> 100
CC(C)C(=O)c1ccc(OCc2ccc(-c3ccc(S(=O)(=O)N[C@@H](C(=O)O)C(C)C)cc3)cc2)cc1 [drawing 152]	0.1	8.4
CC(C)[C@@H](NS(=O)(=O)c1ccc(-c2ccc(COc3ccc(Oc4ccccc4)cc3)cc2)cc1F)C(=O)O	0.1	> 200
CC(C)C(=O)c1ccc(OCc2ccc(-c3ccc(S(=O)(=O)N[C@@H](C(=O)O)C(C)C)cc3)cc2)cc1 [drawing 151]	0.1	8.4
CC(C)[C@@H](NS(=O)(=O)c1ccc(-c2ccc(COc3ccc4c(c3)CCCC4=O)cc2)cc1F)C(=O)O	0.2	6.6
CC(C)[C@@H](NS(=O)(=O)c1ccc(-c2ccc(COc3ccc(C(=O)C4CCCCC4)cc3)cc2)cc1)C(=O)O	0.1	2.6
Cc1cccc(Oc2ccc(OCc3ccc(-c4ccc(S(=O)(=O)N[C@@H](C(=O)O)C(C)C)c(F)c4)cc3)cc2)n1	0.9	3.5
CC(C)[C@@H](NS(=O)(=O)c1ccc(-c2ccc(COc3ccc(NC(=O)OC(C)(C)C)cc3)cc2)cc1)C(=O)O	0.6	5.4
CC(C)[C@@H](NS(=O)(=O)c1ccc(-c2ccc(COc3ccc(C(=O)c4ccccc4)cc3)cc2)cc1)C(=O)O	0.2	2
Cc1cc(-c2ccc(COc3ccc4c(c3)CCCC4=O)cc2)ccc1S(=O)(=O)N[C@@H](C(=O)O)C(C)C	0.9	11.2
COc1cccc(OCc2ccc(-c3ccc(S(=O)(=O)N[C@@H](C(=O)O)C(C)C)cc3)cc2)c1	1.8	5.8

Compound	IC50 [1] [µM]	IC50 [2] [µM]
CC(C)[C@@H](NS(=O)(=O)c1ccc(-c2ccc(COc3cccc(O)c3)cc2)cc1)C(=O)O	1.1	13
O=C(O)CC[C@H](NC(=O)c1ccc(-c2ccccc2)cc1)C(=O)NCc1ccc(F)cc1	0.2	2.8
Cc1c(COc2ccc(-c3ccc(S(=O)(=O)N[C@@H](C(=O)O)C(C)C)cc3)cc2)oc2ccccc12	1.1	3.4
CC(C)[C@@H](NS(=O)(=O)c1ccc(-c2ccc(COc3cccc(C(=O)c4ccccc4)c3)cc2)cc1)C(=O)O	0.2	3.4
CC(C)[C@@H](NS(=O)(=O)c1ccc(-c2ccccc2)cc1)C(=O)O	2.6	5
CC(C)[C@@H](NS(=O)(=O)c1ccc(-c2ccc(COc3cccc(C(=O)C4CCCCC4)c3)cc2)cc1)C(=O)O	0.4	2.4
CC(C)[C@@H](NS(=O)(=O)c1ccc(-c2ccc(COc3cc(C(F)(F)F)nc4c(C(F)(F)F)cccc34)cc2)cc1)C(=O)O	0.2	1.8
CC(C)[C@@H](NS(=O)(=O)c1ccc(-c2ccc(COc3cccc(O)n3)cc2)cc1)C(=O)O	0.4	6.5
CC(C)[C@@H](NS(=O)(=O)c1ccc(-c2ccc(COc3ccc(Oc4ccccc4)cc3)cc2)cc1)C(=O)O	0.4	0.4
CC(C)[C@@H](NS(=O)(=O)c1ccc(-c2ccc(COc3ccc(C4CCCC4)cc3)cc2)cc1)C(=O)O	0.4	0.8
CC(C)[C@@H](NS(=O)(=O)c1ccc(-c2ccc(COc3ccc(Oc4ccccn4)cc3)cc2)cc1)C(=O)O	0.9	10.6
CC(C)[C@@H](NS(=O)(=O)c1ccc(-c2ccc(COc3ccc4c(c3)CCCC4=O)cc2)cc1)C(=O)O	0.2	7.5
CC(=O)c1cccc(OCc2ccc(-c3ccc(S(=O)(=O)N[C@@H](C(=O)O)C(C)C)cc3)cc2)c1	1	12.6
CC(C)[C@@H](NS(=O)(=O)c1ccc(-c2ccc(COc3ccc(F)cc3)cc2)cc1)C(=O)O	1.7	11.3
CC(C)[C@@H](NS(=O)(=O)c1ccc(-c2ccc(COc3ccc(C(=O)N4CCCC4)cc3)cc2)cc1)C(=O)O	1.9	67
CC(C)[C@@H](NS(=O)(=O)c1ccc(-c2ccc(COc3ccc(C(=O)c4ccc(F)cc4)cc3)cc2)cc1)C(=O)O [drawing 172]	0.1	2.4
COc1cc(COc2ccc(-c3ccc(S(=O)(=O)N[C@@H](C(=O)O)C(C)C)cc3)cc2)cc(OC)c1	1.9	3.2
COc1ccc(COc2ccc(-c3ccc(S(=O)(=O)N[C@@H](C(=O)O)C(C)C)cc3)cc2)cc1	1.9	6.3
CC(C)[C@@H](NS(=O)(=O)c1ccc(-c2ccc(COc3ccc4c(c3)CCC4)cc2)cc1)C(=O)O	0.4	2.4

From patent US7390833B2, “Method for treating ADAMTS-5-associated disease” (Wyeth, priority 2003, dated 2008)
